The values below come from patent US12622898B2, “Methods and compositions for improving bone marrow hematopoietic functions” (SUN YAT-SEN UNIVERSITY, priority 2019, dated 2026).

The structures appear in SMILES notation.

The subject of one assay is Pdk3 expression in HSPCs. The assay can be described thus: Pdk3 mRNA levels and immunoblotting in HSCs treated with inhibitors. The assay is classed as cell-based, mouse. As for the experimental part:
The same number of cells from each population to be analyzed were sorted into PBS with 2% FBS. The cells then were washed with PBS and Lysised by RIPA. Equal amounts of protein extracts were fractionated by 12.5% SDS-PAGE and transferred to a PVDF membrane (IPVH00010, Merck Millipore). After blocked with 5% non-fat milk in Tris-buffered saline with Tween-20 (TBST, pH 7.6) for 1 h at room temperature, the membranes were incubated with primary antibodies anti-phospho-PDHE1-A type I (Ser293) (rabbit, 1:1000, ABS204, Merck Millipore), anti-Sphk2 (rabbit, 1:1000, 17096, Proteintech), anti-PDK3 (rabbit, 1:1000, 4970s, Proteintech), or anti-βactin (rabbit, 1:1000, 2118, Cell Signaling Technology), or with primary antibodies anti-PDK3 (rabbit, 1:1000, 12215, Proteintech), anti-β-actin (rabbit, 1:1000, 4970s, Cell Signaling Technology), overnight at 4° C. and then incubated with secondary antibodies (rabbit, 1:10,000, W401B, Promega) for 1 h at room temperature, which was detected by exposure to x-ray film, or by digital imaging with a charge-coupled device camera system (Odyssey Fc). The images shown are representative of images from at least three experiments.

The test system of assay [1] is functional HSCs (engrafted donor cells in PB). Description: Competitive repopulation (serial transplantation) of bone marrow cells from mice after 5 FU and ABC294640 treatment. The assay is classed as in vivo, mouse. Conditions: for increase of reconstitution (engrafted donor cells): at 16 weeks, vs vehicle treated bone marrow cells. As for the experimental part: For lineage analysis of peripheral blood, monoclonal antibodies to CD45.1 (A20, eBioscience), CD45.2 (104, Biolegend), CD3, B220, Mac-1 and Gr1 were used. 2.0×10^5 CD45.2 bone marrow cells and 2.0×10^5 CD45.1 rescue bone marrow cells were transplanted into lethally irradiated CD45.1 recipients. Adult recipient mice (CD45.1) were irradiated with an Orthovoltage X-ray source delivering approximately in two equal doses of 4.5 Gy at least 3 hours apart. For secondary or tertiary transplantation, bone marrow cells from each recipient were injected into one or two irradiated new recipient mouse (1×10^6 per recipient, depending on the number of recipients) during each round of transplantation. Every 4 weeks after transplantation, peripheral blood was collected from the submandibular vein. Hematopoietic repopulation was measured from donor-derived blood cells (CD45.2) or human-derived blood cells (human CD45).

Assay [2] concerns human HSCs (reconstitution in NSG mice). Description: Transplantation of ABC294640 treated human cord blood HSCs into NSG mice. The assay is classed as in vivo, mouse. As for the experimental part:
Or, in example 14, for lineage analysis of peripheral blood, monoclonal antibodies to anti-hCD45 (HI-30, eBioscience), anti-mCD45 (30-F11, Biolegend), anti-hCD33 (human myeloid cells) (WM53, eBioscience), anti-hCD19 (human B cells) (HIB19, eBioscience), anti-hCD3 (human T cells) (UCHT1, eBioscience) were used. Every 4 weeks after transplantation, peripheral blood was collected from the submandibular vein. Hematopoietic repopulation was measured from donor-derived blood cells (CD45.2) or human-derived blood cells (human CD45). Human cord blood cells (2×10^5) were cultured in 96-round-well plate with Stem Span media (9650, Stem Cell Technologies) supplemented with SCF (10 ng per ml), TPO (20 ng per ml) for two weeks. The culture media was supplemented with vehicle or ABC294640 (1 μM, Target Molecule Corp […]). After culture for two weeks, the culture product was transplanted into irradiated (2Gy) 6-12 weeks old NSG mice via the tail. No mice were excluded unless they died during the 16-week-observations. All animal experiments were performed according to protocols approved by the institutional animal care and use committee.

Setting [3] is: donor-derived lineage cells at 16 weeks after transplantation.
Where [4] appears, read: 16 weeks after transplantation in NSG mice.

In the case of `O=C(NCc1ccncc1)C12CC3CC(C1)CC(c1ccc(Cl)cc1)(C3)C2` [ABC294640, 3-(4-chloro-phenyl)-adamantane-1-carboxylic acid (pyridin-4-ylmethyl)-amide], the “Pdk3 expression in HSPCs” value in the assay with Pdk3 expression in HSPCs is recorded as “could upregulate Pdk3 expression”. In assay [1] (setting [3]), the lymphopoiesis in recipients result was “markedly promoted lymphopoiesis” and the “myeloid skewing in recipients” value is “suppressed myeloid skewing”. Also, the “increase of reconstitution (engrafted donor cells)” value (“increase … (engrafted donor cells)” below) in assay [1] (primary transplantation) is 1.7 fold. Further, the “increase … (engrafted donor cells)” value in assay [1] (secondary transplantation) is 1.5 fold. Further, the “increase … (engrafted donor cells)” value in assay [1] (tertiary transplantation) was 1.9 fold. In assay [2] (setting [4]), the “lymphopoiesis (both B and T cells in recipients)” value was “improved lymphopoiesis”; the multilineage potential entry was “with multilineage potential”; the myeloid skewing result is listed as “reduction in myeloid skewing”. The “increase of reconstitution (human-derived blood cells)” value in assay [2] (16 weeks post transplantation in NSG mice, vs vehicle cultured cells) is on record as 1.76 fold.
